Experiment [1] relates to spontaneously hypertensive stroke-prone rats (SHR-SP/Izm). Kind of experiment: Serum and urine biochemical tests, comparison of DHA-bound TG and EE (Example 3). It is filed as in vivo, rat. The note with it: H-DHA-TG 2,000, DHA-EE 1,303, Tri-DHA-TG 1,246 mg/kg once a day gavage, 4 weeks; for Urine Alb / Urine Alb/CRE / Urine TP: median. The method, then: (§1) Spontaneously hypertensive stroke-prone rats (SHR-SP/Izm, Nihon SLC Co., Ltd.) aged 4 weeks were acclimatized for 1 week, then fed an 8-mass % salt-containing solid diet (AlN-93G) and a drinking water freely, and once a day, DHA highly enriched triglycerides (H-DHA-TG), esters (DHA-EE) used in Example 2, and triglycerides (Tri-DHA-TG) prepared in Example 2 were administered by gavage with the amounts shown in Table 3,
(§2) In addition, urine samples were collected before the start of administration and after 4 weeks of administration under fasting for 16 hours, and biochemical tests and metabolite analysis by NMR were performed by conventional methods.
At the end of the test, blood was collected from the abdominal vena cava and necropsied.
Biochemical metabolite analysis was performed on the obtained serum by conventional methods.

The test system is the same in experiment [2]. In words: Kidney pathology scores GSI and AIS (Example 3). The class given is in vivo, rat. The note with it: H-DHA-TG 2,000, DHA-EE 1,303, Tri-DHA-TG 1,246 mg/kg once a day gavage, 4 weeks, group average. The method, then: as §1
The kidneys were fixed in formalin solution, and then each staining was performed by PAS-staining, Sirius-Red-staining, and immunostaining for α-SMA, CD68, Desmin, and Kim−1 for pathological observations.
For PAS-staining, along with pathomorphological observations, glomerulosclerosis score (GSI), renal artery injury score (AIS) were performed with reference to Clinical and Experimental Hypertension, 2012, 34 (2) 99-106.

Experiment [3] has the same test system. In words: Urine metabolite analysis by NMR (Example 3). Conditions: for Urine metabolic concentration: 4-Hydroxyphenylacetate / Urine metabolic concentration: Glycine / Urine metabolic concentration: N-Phenylacetylglycine / Urine metabolic concentration: Creatinine: Example 3, H-DHA-TG 2,000, DHA-EE 1,303, Tri-DHA-TG 1,246 mg/kg, 4 weeks; for Urine metabolic concentration: Creatinine: normaliser. The class given is in vivo, rat. The method, then: as §1, §2

The test system of experiment [4] is diabetic disease model animals. Conditions: Non-Patent Document 4; cited from earlier work.
Experiment [5] concerns salt-sensitive spontaneously hypertensive stroke-prone rats. Conditions: Non-Patent Documents 1 and 2; cited from earlier work.

The source of these data is patent US12667551B2, “Renal function maintenance and protection agent, and method for evaluating effect thereof” (MARUHA NICHIRO CORPORATION, priority 2018, dated 2026).

Marks after values point to notes of the source that are not given here.

Turning to `CC/C=C\C/C=C\C/C=C\C/C=C\C/C=C\C/C=C\CCC(=O)OCC` [DHA-EE, ethyl esters of docosahexaenoic acid], in experiment [1], the “Serum BUN” value was found to be 25.1 ± 3.7 mg/dL, the “Serum CRE” value is 0.28 ± 0.04 mg/dL, the “Urine CRE” value is reported as 3.23 ± 0.59 mg/16 h and the “Urine Alb” value is listed as 1054 ug/16 h. In addition, in experiment [1], the “Urine Alb/CRE” value is given as 4.44^† and the “Urine TP” value came out at 3.2 mg/16 h. Besides, in experiment [2], the “AIS (renal artery injury score)” value is listed as 19.4 and the “GSI (glomerulosclerosis score)” value came to 7.1. Moreover, in experiment [3], the “Urine metabolic concentration: 4-Hydroxyphenylacetate” value is recorded as 0.09 ± 0.03 (μM)/Cre(μM), the “Urine metabolic concentration: Glycine” value is recorded as 0.18 ± 0.04 (μM)/Cre(μM), the “Urine metabolic concentration: N-Phenylacetylglycine” value was 0.34 ± 0.09 (μM)/Cre(μM) and the “Urine metabolic concentration: Creatinine” value is listed as 1.00 ± 0.00 (μM)/Cre(μM). For the same molecule, the Blood glucose levels result in experiment [4] is on record as “lowered blood glucose levels to the same extent as control”. Further, the Renal function protection result in experiment [5] is on record as “renal function was protected”.
For the molecule `CC/C=C\C/C=C\C/C=C\C/C=C\C/C=C\CCCC(=O)OCC` [EPA-EE, ethyl esters of eicosapentaenoic acid], in experiment [4], the Blood glucose levels result is given as “no effect was observed”. The Renal function protection entry in experiment [5] is reported as “renal function was protected”.
With `CC/C=C\C/C=C\C/C=C\C/C=C\C/C=C\C/C=C\CCC(=O)OCC(COC(=O)CC/C=C\C/C=C\C/C=C\C/C=C\C/C=C\C/C=C\CC)OC(=O)CC/C=C\C/C=C\C/C=C\C/C=C\C/C=C\C/C=C\CC` [Tri-DHA-TG, tridocosahexaenoyl triglyceride], in experiment [1], the “Serum BUN” value was 25.1 ± 4.2 mg/dL, the “Serum CRE” value stood at 0.28 ± 0.06 mg/dL, the “Urine CRE” value is 3.02 ± 0.47 mg/16 h and the “Urine Alb” value is given as 544.95^† ug/16 h. Further, in experiment [1], the “Urine Alb/CRE” value is listed as 1.85^† and the “Urine TP” value is 3.2^† mg/16 h. In experiment [2], the “AIS (renal artery injury score)” value stood at 21.1 and the “GSI (glomerulosclerosis score)” value is 11.4. Further, the “Significant differences of urine metabolites vs control, triglycerides compared with esters” value in experiment [3] (Example 3, Table 6) is reported as “more significant differences”. Further, in experiment [3], the “Urine metabolic concentration: 4-Hydroxyphenylacetate” value is 0.12 ± 0.04 (μM)/Cre(μM), the “Urine metabolic concentration: Glycine” value is given as 0.19 ± 0.03 (μM)/Cre(μM), the “Urine metabolic concentration: N-Phenylacetylglycine” value is 0.42 ± 0.08 (μM)/Cre(μM) and the “Urine metabolic concentration: Creatinine” value is reported as 1.00 ± 0.00 (μM)/Cre(μM).
Take triglycerides of DHA [DHA-TAG]: the Blood glucose levels entry in experiment [4] is on record as “lowered blood glucose levels to the same extent as control”.
As for triglycerides of EPA [EPA-TAG], in experiment [4], the Blood glucose levels result is “no effect was observed”.
